Measurements from ChEMBL document CHEMBL4190255, “Novel celastrol derivatives with improved selectivity and enhanced antitumour activity: Design, synthesis and biological evaluation” (Eur J Med Chem, 2017).

Columns and labels:
MIA PaCa-2 = test: Antiproliferative activity against human MIAPaCa2 cells after 72 hrs by MTT assay; type: functional, cell-based; conditions: MIA PaCa-2, 72 h
A549 = test: Antiproliferative activity against human A549 cells after 72 hrs by MTT assay; type: functional, cell-based; conditions: A549, 72 h

Row | SMILES | IC50 (MIA PaCa-2) [µM] | IC50 (A549) [µM]
1 | CC(=O)Oc1cc2c(c(C)c1OC(C)=O)C(=O)C=C1[C@@]2(C)CC[C@@]2(C)[C@@H]3C[C@](C)(N=C=O)CC[C@]3(C)CC[C@]12C | > 5 | > 15
2 | CC1=C(O)C(=O)C=C2C1=CC=C1[C@@]2(C)CC[C@@]2(C)[C@@H]3C[C@](C)(NC(N)=O)CC[C@]3(C)CC[C@]12C | 0.63 | 2.48
3 | CC1=C(O)C(=O)C=C2C1=CC=C1[C@@]2(C)CC[C@@]2(C)[C@@H]3C[C@](C)(NC(=O)NO)CC[C@]3(C)CC[C@]12C | 0.85 | 3.5
4 | Cc1c(O)c(O)cc2c1C(=O)C=C1[C@@]2(C)CC[C@@]2(C)[C@@H]3C[C@](C)(C(=O)O)CC[C@]3(C)CC[C@]12C | > 5 | > 15
5 | CC1=C(O)C(=O)C=C2C1=CC=C1[C@@]2(C)CC[C@@]2(C)[C@@H]3C[C@](C)(NC(=O)NCc4ccc(C)cc4)CC[C@]3(C)CC[C@]12C | 0.45 | 2.45
6 | CC1=C(O)C(=O)C=C2C1=CC=C1[C@@]2(C)CC[C@@]2(C)[C@@H]3C[C@](C)(NC(=O)NCc4ccc(F)cc4)CC[C@]3(C)CC[C@]12C | 0.56 | 4.34
7 | CCNC(=O)N[C@]1(C)CC[C@]2(C)CC[C@]3(C)C4=CC=C5C(=CC(=O)C(O)=C5C)[C@]4(C)CC[C@@]3(C)[C@@H]2C1 | 0.55 | 1.41
8 | CC(=O)Oc1cc2c(c(C)c1OC(C)=O)C(=O)C=C1[C@@]2(C)CC[C@@]2(C)[C@@H]3C[C@](C)(C(=O)O)CC[C@]3(C)CC[C@]12C | > 5 | > 15
9 | CNC(=O)N[C@]1(C)CC[C@]2(C)CC[C@]3(C)C4=CC(=O)c5c(cc(OC)c(OC)c5C)[C@]4(C)CC[C@@]3(C)[C@@H]2C1 | > 5 | > 15
10 | CC1=C(O)C(=O)C=C2C1=CC=C1[C@@]2(C)CC[C@@]2(C)[C@@H]3C[C@](C)(NC(=O)NCCc4ccccc4)CC[C@]3(C)CC[C@]12C | 0.41 | 1.66
